Measurements reported in PMC8838415, “Discovery of Novel Pleuromutilin Derivatives as Potent Antibacterial Agents for the Treatment of MRSA Infection” (Molecules, 2022).
≈ marks a conversion by molar mass, not a printed value.

Key:
[1] = test system: methicillin-resistant S. aureus (ATCC 43300); assay: MIC and MBC, broth dilution, MRSA ATCC 43300; assay type: cell-based; conditions: Staphylococcus aureus
Method: (§1) The synthesized pleuromutilin derivatives 8–30 were tested against four Gram-positive bacteria (MRSA ATCC 43300, S. aureus ATCC 29213 and two clinical strains of S. aureus (AD3 and 144) isolated from Guangdong Province). Tiamulin was used as the positive control in this experiment.
(§2) MIC values were tested following our previous work. The derivatives were dissolved in an aqueous solution of 2.5% tween-80 and 2.5% DMSO to make a solution with a concentration of 1000 µg/mL. The solution was diluted 12 times with MH broth to give a concentration range of 32–0.01 µg/mL. The bacteria (5 × 10^5 CFU/mL) were added in each well. For each compound concentration, three parallel experiments were set. The 96-well plate was incubated for 22–26 h at 37 °C. The MIC value was recorded as the minimal concentration that inhibits the visible growth of tested bacteria completely.
(§3) The MBC of these pleuromutilin derivatives were tested according to a previously reference. […] Then, the values of MBC were determined by laying 100 μL aliquots from the wells onto the MH agar plates without visible growth. The MH agar plate was cultured for a further 22–26 h at 37 °C.

[2] = test system: S. aureus (ATCC 29213); assay: MIC and MBC, broth dilution, S. aureus ATCC 29213; assay type: cell-based; conditions: Staphylococcus aureus, ATCC29213
Method: as §1, §2, §3

[3] = test system: S. aureus (AD3); assay: MIC and MBC, broth dilution, S. aureus AD3; assay type: cell-based; conditions: Staphylococcus aureus; S. aureus AD3 (clinical strain)
Method: as §1, §2, §3

[4] = test system: S. aureus (144); assay: MIC and MBC, broth dilution, S. aureus 144; assay type: cell-based; conditions: Staphylococcus aureus; S. aureus 144 (clinical strain)
Method: as §1, §2, §3

[5] = test system: 50S ribosome; assay: SPR interaction and affinity analysis; assay type: binding, S. aureus ATCC 43300; conditions: 4 °C; for Avg ka / Avg kd: 1:1 Langmuir binding; for Kd: KD = Kd/Ka
Method: S. aureus ATCC 43300 was used to prepare the 50S ribosomal subunit the same way as described previously. Cells were grown overnight in Brain Heart Infusion broth at 37 °C and harvested for 1.5 h at an OD600. Cells were washed with 10 mM Tris-HCl twice at pH = 7.5, and resuspended in 5 mL buffer A (20 mM HEPES-HCl pH = 7.5, 21 mM Mg(OAc)2, 100 mM NH4Cl, 1 mM DTT, 1 mM EDTA). Cells were broken by an ultrasound crusher. The lysate was centrifuged for 90 min at 20,000× g to clear cell debris.
The solution was layered on a sucrose cushion of 15 mL (10 mM Hepes-KOH pH 7.5, 25 mM Mg(OAc)2, 500 mM KCl, […], 1 mM DTT, 0.5 mM EDTA). Centrifugation was carried out for 15 h at 45,000 rpm using an ultracentrifuge Beckman (Beckman Coulter, Shanghai, China), Type 70Ti rotor. The crude ribosome pellet was resuspended in buffer E (10 mM Hepes-KOH pH 7.5, 10 mM Mg(OAc)2, 100 mM KCl, 1 mM DTT, 0.5 mM EDTA), then layered on 9 mL of 7–30% sucrose gradient and centrifuged in an ultracentrifuge Beckman, type SW40Ti rotor at 17,100 rpm for 15 h. The gradient was analyzed on the AKTA explorer system (Amersham, UK). The fractions corresponding to the 50S ribosomal subunit were collected and further subjected to precipitation by PEG 20,000. The 50S ribosomal subunit pellet was gently dissolved in 200 µL of storage buffer (10 mM HEPES-HCl pH = 7.5, 10 mM Mg(OAc)2, 15 mM KCl, 60 mM NH4Cl, 1 mM DTT) and stored at −80 °C.
SPR affinity analysis was performed on the bScreen LB 991 Label-free Microarray System (Berthold Technologies, Black Forest, Germany) at 4 °C and Biodot AD-1520 Array Printer (BIODOT Inc., Irvine, CA, USA) with a Photo-cross-linker SensorCHIP™. Concentrations of each compound were diluted to 100 μM with DMSO as the printing working solution for immobilization. A Biodot AD-1520 Array Printer (BIODOT Inc., CA, USA) was used to control the photo-cross-linker sensor chip and print samples. Each sample was printed four times. In order to check the chip quality and check whether the detection system works, DMSO was used as a system-negative control and rapamycin as a positive control. All positive control dots were divided into four groups and printed on the four corners of the sensor chip. The sensor chip was dried in vacuum after the array print and quickly transferred to a spectra radiator for a photo cross-linking reaction. The sensor chip was washed with C2H5OH, DMF and H2O in turn and evaporated in a N2 atmosphere for 15 min. Then, the Flowcell Cover were assembled.
The 50S ribosome was diluted separately to 200 nM, 400 nM, 800 nM, 1600 nM and 3200 nM with PBST (pH = 7.4, 0.1% Tween 20). Different concentrations of ribosome solutions were injected at a flow rate of 0.5 μL⋅s^−1 for 600 s at the associating stage at 4 °C, followed by PBST at a flow rate of 0.5⋅μL·s^−1 for 360 s at each dissociating stage. Then, the surface was regenerated with Glycine-HCl (pH = 2.0) at a flow rate of 2⋅μL·s^−1 for 300 s.
The raw data of the binding process of compounds and the 50S ribosome were recorded in real time. We compared the response unit (RU) of surface resonance to determine the different binding affinity between each sample dot. The process and analysis of association rate constants (Ka) and dissociation rate constants (Kd) and the equilibrium dissociation constant (KD, Kd/Ka) were performed using the data analysis software of the bScreen LB 991 Label-free Microarray System according to a single-site binding model (1:1 Langmuir binding) with mass transfer limitations for binding kinetics determination.

MIC [1] [µg/mL] | MIC [2] [µg/mL] | MIC [3] [µg/mL] | MIC [4] [µg/mL] | Avg kd [5] [s⁻¹] | Kd [5] [µM] | melting point [°C] | SMILES | MBC [1] [µg/mL] | MBC [2] [µg/mL] | MBC [3] [µg/mL] | MBC [4] [µg/mL] | Avg ka [5] [M⁻¹ s⁻¹]
1 (≈ 2.08 µM) | 2 (≈ 4.15 µM) | 2 (≈ 4.15 µM) | 4 (≈ 8.3 µM) | 0.00963 | 4690 | 73 to 75 | C=C[C@]1(C)C[C@@H](OC(=O)CNCCc2ccccc2)[C@]2(C)[C@H](C)CC[C@]3(CCC(=O)[C@H]32)[C@@H](C)[C@@H]1O [Compound 17, 22-(2-PhenylethylaMineyl)-22-deoxypleuromutilin] | 1 (≈ 2.08 µM) | 8 (≈ 16.6 µM) | 8 (≈ 16.6 µM) | 4 (≈ 8.3 µM) | 2.05
0.12 (≈ 0.225 µM) | 0.25 (≈ 0.469 µM) | 0.25 (≈ 0.469 µM) | 0.5 (≈ 0.939 µM) | 0.197 | 6350 | 97 to 98 | C=C[C@]1(C)C[C@@H](OC(=O)CNc2ccc(Br)cc2)[C@]2(C)[C@H](C)CC[C@]3(CCC(=O)[C@H]32)[C@@H](C)[C@@H]1O [Compound 13, 22-(4-Bromoanilineyl)-22-deoxypleuromutilin] | 0.12 (≈ 0.225 µM) | 0.25 (≈ 0.469 µM) | 1 (≈ 1.88 µM) | 1 (≈ 1.88 µM) | –
0.12 (≈ 0.246 µM) | 0.5 (≈ 1.02 µM) | 0.25 (≈ 0.512 µM) | 1 (≈ 2.05 µM) | 0.0019 | 51.8 | 94 to 95 | C=C[C@]1(C)C[C@@H](OC(=O)CNc2ccc(Cl)cc2)[C@]2(C)[C@H](C)CC[C@]3(CCC(=O)[C@H]32)[C@@H](C)[C@@H]1O [Compound 11, 22-(4-Chloroanilineyl)-22-deoxypleuromutilin] | 0.25 (≈ 0.512 µM) | 1 (≈ 2.05 µM) | 1 (≈ 2.05 µM) | 2 (≈ 4.1 µM) | –
32 (≈ 53.2 µM) | 32 (≈ 53.2 µM) | > 32 | 32 (≈ 53.2 µM) | 0.0375 | 993 | 76 to 79 | C=C[C@]1(C)C[C@@H](OC(=O)CNCCCCCCCCCCCCCCCC)[C@]2(C)[C@H](C)CC[C@]3(CCC(=O)[C@H]32)[C@@H](C)[C@@H]1O [Compound 24, 22-Hexadecylamineyl-22-deoxypleuromutilin] | > 32 | > 32 | > 32 | > 32 | –
1 (≈ 2.06 µM) | 4 (≈ 8.24 µM) | 2 (≈ 4.12 µM) | 8 (≈ 16.5 µM) | 0.00432 | 2.21 | 143 to 144 | C=C[C@]1(C)C[C@@H](OC(=O)CNCc2cccc(F)c2)[C@]2(C)[C@H](C)CC[C@]3(CCC(=O)[C@H]32)[C@@H](C)[C@@H]1O [Compound 15, 22-(3-Fluorobenzylamineyl)-22-deoxypleuromutilin] | 2 (≈ 4.12 µM) | 8 (≈ 16.5 µM) | 8 (≈ 16.5 µM) | 16 (≈ 32.9 µM) | 1960
16 (≈ 32.7 µM) | 16 (≈ 32.7 µM) | 32 (≈ 65.3 µM) | 32 (≈ 65.3 µM) | 0.00073 | 6.41 | 76 to 77 | C=C[C@]1(C)C[C@@H](OC(=O)CNCCCCCCCC)[C@]2(C)[C@H](C)CC[C@]3(CCC(=O)[C@H]32)[C@@H](C)[C@@H]1O [Compound 22, 22-Octylamineyl-22-deoxypleuromutilin] | 32 (≈ 65.3 µM) | > 32 | > 32 | > 32 | 114
1 (≈ 2.02 µM) | 2 (≈ 4.03 µM) | 1 (≈ 2.02 µM) | 4 (≈ 8.07 µM) | 0.000469 | 0.151 | 83 to 84 | C=C[C@]1(C)C[C@@H](OC(=O)CNCCCc2ccccc2)[C@]2(C)[C@H](C)CC[C@]3(CCC(=O)[C@H]32)[C@@H](C)[C@@H]1O [Compound 19, 22-(3-Phenylpropylamineyl)-22-deoxypleuromutilin] | 2 (≈ 4.03 µM) | 4 (≈ 8.07 µM) | 4 (≈ 8.07 µM) | 8 (≈ 16.1 µM) | 3110
0.5 (≈ 1.03 µM) | 2 (≈ 4.1 µM) | 4 (≈ 8.2 µM) | 2 (≈ 4.1 µM) | 0.0197 | 31.6 | 69 to 70 | C=C[C@]1(C)C[C@@H](OC(=O)CNCCc2cccs2)[C@]2(C)[C@H](C)CC[C@]3(CCC(=O)[C@H]32)[C@@H](C)[C@@H]1O [Compound 20, 22-(Thiophene-2-ethylamineyl)-22-deoxypleuromutilin] | 1 (≈ 2.05 µM) | 2 (≈ 4.1 µM) | 16 (≈ 32.8 µM) | 4 (≈ 8.2 µM) | 624
0.12 (≈ 0.246 µM) | 0.12 (≈ 0.246 µM) | 0.125 (≈ 0.256 µM) | 0.25 (≈ 0.512 µM) | 0.00224 | 26 | 158 to 160 | C=C[C@]1(C)C[C@@H](OC(=O)CNc2cccc(Cl)c2)[C@]2(C)[C@H](C)CC[C@]3(CCC(=O)[C@H]32)[C@@H](C)[C@@H]1O [Compound 10, 22-(3-Chloroanilineyl)-22-deoxypleuromutilin] | 0.12 (≈ 0.246 µM) | 0.25 (≈ 0.512 µM) | 0.5 (≈ 1.02 µM) | 0.5 (≈ 1.02 µM) | –
1 (≈ 2.06 µM) | 4 (≈ 8.24 µM) | 2 (≈ 4.12 µM) | 4 (≈ 8.24 µM) | 0.065 | 424 | 163 to 164 | C=C[C@]1(C)C[C@@H](OC(=O)CNCc2ccccc2F)[C@]2(C)[C@H](C)CC[C@]3(CCC(=O)[C@H]32)[C@@H](C)[C@@H]1O [Compound 14, 22-(2-Fluorobenzylamineyl)-22-deoxypleuromutilin] | 2 (≈ 4.12 µM) | 8 (≈ 16.5 µM) | 8 (≈ 16.5 µM) | 8 (≈ 16.5 µM) | 153
1 (≈ 2.37 µM) | 2 (≈ 4.74 µM) | 2 (≈ 4.74 µM) | 4 (≈ 9.49 µM) | 0.0272 | 9.96 | 91 to 94 | C=C[C@]1(C)C[C@@H](OC(=O)CNCCO)[C@]2(C)[C@H](C)CC[C@]3(CCC(=O)[C@H]32)[C@@H](C)[C@@H]1O [Compound 28, 22-Ethanolamine-22-deoxypleuromutilin] | 2 (≈ 4.74 µM) | 8 (≈ 19 µM) | 8 (≈ 19 µM) | 4 (≈ 9.49 µM) | 2730
